Read-outs that look alike come from different tables or passages of the source.
Experiments:
Assay type in all cases: biochemical
Tyk2 = Tyk2 (Homo sapiens (Human), UniProt P29597); test: Enzyme assay (Assay Example^a 1), Tyk2; conditions: ATP 100 μM
JAK2 = JAK2 (Homo sapiens (Human), UniProt O60674); test: Enzyme assay (Assay Example^a 1), JAK2; conditions: ATP 100 μM
JAK3 = JAK3 (Homo sapiens (Human), UniProt P52333); test: Enzyme assay (Assay Example^a 1), JAK3
JAK1 = JAK1 (Homo sapiens (Human), UniProt P23458); test: Enzyme assay (Assay Example^a 1), JAK1; conditions: ATP 100 μM

Chain of JAK3 (P52333 whole entry): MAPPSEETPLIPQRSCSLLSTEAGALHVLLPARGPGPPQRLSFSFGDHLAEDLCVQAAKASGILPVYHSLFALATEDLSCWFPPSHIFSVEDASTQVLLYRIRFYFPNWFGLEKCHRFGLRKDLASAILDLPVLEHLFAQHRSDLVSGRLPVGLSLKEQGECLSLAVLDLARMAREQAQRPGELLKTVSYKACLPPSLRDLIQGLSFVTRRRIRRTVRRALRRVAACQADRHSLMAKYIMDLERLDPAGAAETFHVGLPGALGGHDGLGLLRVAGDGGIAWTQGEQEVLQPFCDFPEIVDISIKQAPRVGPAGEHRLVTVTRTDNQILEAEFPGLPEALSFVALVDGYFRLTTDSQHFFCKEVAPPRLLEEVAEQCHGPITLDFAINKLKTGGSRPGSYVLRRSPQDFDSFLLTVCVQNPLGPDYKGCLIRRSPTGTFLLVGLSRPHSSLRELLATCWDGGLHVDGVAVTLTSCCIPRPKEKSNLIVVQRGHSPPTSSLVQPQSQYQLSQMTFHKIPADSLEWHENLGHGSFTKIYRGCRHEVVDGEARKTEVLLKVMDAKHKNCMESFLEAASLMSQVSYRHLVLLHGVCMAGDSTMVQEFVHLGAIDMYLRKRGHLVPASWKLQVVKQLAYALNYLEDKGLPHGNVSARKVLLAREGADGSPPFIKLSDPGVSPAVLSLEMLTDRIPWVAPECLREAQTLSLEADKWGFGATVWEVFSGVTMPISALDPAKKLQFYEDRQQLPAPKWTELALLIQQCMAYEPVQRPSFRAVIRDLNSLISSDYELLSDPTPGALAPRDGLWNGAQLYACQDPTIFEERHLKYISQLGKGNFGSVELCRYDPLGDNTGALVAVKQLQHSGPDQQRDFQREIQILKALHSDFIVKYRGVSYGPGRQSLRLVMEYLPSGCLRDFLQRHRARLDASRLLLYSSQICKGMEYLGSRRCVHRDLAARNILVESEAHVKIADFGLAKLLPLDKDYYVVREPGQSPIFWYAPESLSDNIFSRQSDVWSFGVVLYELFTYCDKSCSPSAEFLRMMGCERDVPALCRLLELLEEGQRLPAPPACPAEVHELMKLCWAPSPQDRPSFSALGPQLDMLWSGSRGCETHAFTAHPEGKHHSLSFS
Chain of Tyk2 (P29597 whole entry): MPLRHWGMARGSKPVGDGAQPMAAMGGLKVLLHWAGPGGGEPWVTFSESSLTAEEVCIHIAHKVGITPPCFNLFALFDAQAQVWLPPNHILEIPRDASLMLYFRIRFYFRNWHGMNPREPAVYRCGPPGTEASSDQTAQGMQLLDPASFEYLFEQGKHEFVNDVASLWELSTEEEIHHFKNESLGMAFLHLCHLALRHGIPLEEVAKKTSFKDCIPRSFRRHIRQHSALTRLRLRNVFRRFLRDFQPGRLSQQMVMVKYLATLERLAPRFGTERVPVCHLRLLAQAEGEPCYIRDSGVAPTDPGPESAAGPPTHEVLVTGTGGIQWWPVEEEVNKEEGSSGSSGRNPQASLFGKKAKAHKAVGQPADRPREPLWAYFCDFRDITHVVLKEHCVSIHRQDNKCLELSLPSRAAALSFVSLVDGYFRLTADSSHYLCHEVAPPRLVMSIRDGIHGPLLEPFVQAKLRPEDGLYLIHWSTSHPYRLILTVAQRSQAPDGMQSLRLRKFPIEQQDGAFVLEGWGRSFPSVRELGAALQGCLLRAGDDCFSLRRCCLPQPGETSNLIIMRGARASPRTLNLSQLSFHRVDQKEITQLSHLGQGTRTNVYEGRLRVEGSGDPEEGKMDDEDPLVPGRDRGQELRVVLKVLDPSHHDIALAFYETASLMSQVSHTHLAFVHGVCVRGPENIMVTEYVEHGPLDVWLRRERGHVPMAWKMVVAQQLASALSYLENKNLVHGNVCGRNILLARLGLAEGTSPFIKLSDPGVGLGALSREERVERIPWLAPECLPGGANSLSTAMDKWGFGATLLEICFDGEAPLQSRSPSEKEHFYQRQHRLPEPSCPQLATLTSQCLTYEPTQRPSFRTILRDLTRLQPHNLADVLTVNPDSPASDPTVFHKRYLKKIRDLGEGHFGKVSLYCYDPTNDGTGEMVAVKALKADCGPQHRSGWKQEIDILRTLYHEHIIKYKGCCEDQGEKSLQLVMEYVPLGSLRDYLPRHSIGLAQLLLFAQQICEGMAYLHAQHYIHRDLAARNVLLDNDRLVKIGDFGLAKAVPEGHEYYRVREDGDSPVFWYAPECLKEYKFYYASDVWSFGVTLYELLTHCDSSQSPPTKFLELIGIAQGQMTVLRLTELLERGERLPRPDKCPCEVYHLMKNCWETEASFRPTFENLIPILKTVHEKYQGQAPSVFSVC

SMILES	IC50 (Tyk2) [µM]	IC50 (JAK2) [µM]	IC50 (JAK3; ATP 100 μM) [µM]	IC50 (JAK1) [µM]	IC50 (Tyk2; Table^a 154) [µM]	IC50 (JAK2; Table^a 154) [µM]	IC50 (JAK3; ATP 100 μM, Table^a 154) [µM]	IC50 (JAK1; Table^a 154) [µM]	IC50 (JAK3) [µM]
O=C(CNC[C@H]1CC[C@H](c2nnn3cnc4[nH]ccc4c23)CC1)NCC(F)(F)F [compound 341, 2-({[trans-4-(7H-pyrrolo[3,2-e][1,2,3]triazolo[1,5-c]pyrimidin-1-yl)cyclohexyl]methyl}amino)-N-(2,2,2-trifluoroethyl)acetamide]	0.32	0.059	0.31	0.01					
OC1CN(C[C@H]2CC[C@@H](c3nnn4cnc5[nH]ccc5c34)CC2)C1 [compound 403, 1-{[cis-4-(7H-Pyrrolo[3,2-e][1,2,3]triazolo[1,5-c]pyrimidin-1-yl)cyclohexyl]methyl}azetidin-3-ol]	0.81	0.3	0.44	0.04					
CC1(NC[C@H]2CC[C@H](c3nnn4cnc5[nH]ccc5c34)CC2)CC1 [compound 295, N-{[trans-4-(7H-pyrrolo[3,2-e][1,2,3]triazolo[1,5-c]pyrimidin-1-yl)cyclohexyl]methyl}-1-methylcyclopropanamine]	0.33	0.064	0.84	0.0069					
CSc1ccc(C(O)(CN[C@H]2CC[C@H](c3nnn4cnc5[nH]ccc5c34)CC2)C(F)(F)F)cc1 (stereo partly drawn) [386b, 3-{[trans-4-(7H-pyrrolo[3,2-e][1,2,3]triazolo[1,5-c]pyrimidin-1-yl)cyclohexyl]amino}-1,1,1-trifluoro-2-[4-(methylthio)phenyl]propan-2-ol]	0.39	0.027	0.28	0.0017					
c1cc2c(ncn3nnc(C4CCCCC4)c23)[nH]1 [compound 6]	0.046	0.012	0.15	0.0038					
CC(C)(C)OC(=O)NCC1CCN(C[C@H]2CC[C@H](c3nnn4cnc5[nH]ccc5c34)CC2)CC1 [compound 336, tert-butyl [(1-{[trans-4-(7H-pyrrolo[3,2-e][1,2,3]triazolo[1,5-c]pyrimidin-1-yl)cyclohexyl]methyl}piperidin-4-yl)methyl]carbamate]	> 1	0.37	> 1	0.025					
c1cnc2cc(CN3CCC(c4nnn5cnc6[nH]ccc6c45)CC3)ccc2n1 [compound 218, 1-[1-(quinoxalin-6-ylmethyl)piperidin-4-yl]-7H-pyrrolo[3,2-e][1,2,3]triazolo[1,5-c]pyrimidine]	> 1	0.14	> 1	0.028					
N#CCOc1ccc(CN2CCC(c3nnn4cnc5[nH]ccc5c34)CC2)cc1 [compound 213, 2-(4-{[4-(7H-pyrrolo[3,2-e][1,2,3]triazolo[1,5-c]pyrimidin-1-yl)piperidin-1-yl]methyl}phenoxy)acetonitrile]	> 1	0.19	> 1	0.024					
c1cc2c(ncn3nnc(C4CCN(Cc5cocn5)CC4)c23)[nH]1 [compound 219, 4-{[4-(7H-pyrrolo[3,2-e][1,2,3]triazolo[1,5-c]pyrimidin-1-yl)piperidin-1-yl]methyl}oxazole]	0.97	0.081	0.62	0.039					
OC12CC3CC(C1)C(NC[C@H]1CC[C@H](c4nnn5cnc6[nH]ccc6c45)CC1)C(C3)C2 (stereo partly drawn) [compound 304, (1S,3R,4s,5S,7S)-4-({[trans-4-(7H-pyrrolo[3,2-e][1,2,3]triazolo[1,5-c]pyrimidin-1-yl)cyclohexyl]methyl}amino)adamantan-1-ol]	> 1	0.27	> 1	0.049					
Clc1ccc(CN2CCC(c3nnn4cnc5[nH]ccc5c34)CC2)c(Cl)n1 [compound 231, 1-{1-[(2,6-dichloropyridin-3-yl)methyl]piperidin-4-yl}-7H-pyrrolo[3,2-e][1,2,3]triazolo[1,5-c]pyrimidine]	0.61	0.023	0.23	0.0043					
N#CCNC[C@H]1CC[C@H](c2nnn3cnc4[nH]ccc4c23)CC1 [compound 259, 2-({[trans-4-(7H-pyrrolo[3,2-e][1,2,3]triazolo[1,5-c]pyrimidin-1-yl)cyclohexyl]methyl}amino)acetonitrile]	0.037	0.0081	0.27	0.0021					
N#C[C@@H]1CCN(C[C@H]2CC[C@H](c3nnn4cnc5[nH]ccc5c34)CC2)C1 [compound 301, (R)-1-{[trans-4-(7H-pyrrolo[3,2-e][1,2,3]triazolo[1,5-c]pyrimidin-1-yl)cyclohexyl]methyl}pyrrolidine-3-carbonitrile]	> 1	0.072	0.96	0.024					
O=C([C@H]1CC[C@H](c2nnn3cnc4[nH]ccc4c23)CC1)N1CC[C@H](O)C1 [compound 358, [trans-4-(7H-pyrrolo[3,2-e][1,2,3]triazolo[1,5-c]pyrimidin-1-yl)cyclohexyl][(S)-3-hydroxypyrrolidin-1-yl]methanone]	> 1	0.91	> 1	0.63					
N#Cc1cc(NC[C@H]2CC[C@H](c3nnn4cnc5[nH]ccc5c34)CC2)ccc1Cl [compound 263, 5-({[trans-4-(7H-pyrrolo[3,2-e][1,2,3]triazolo[1,5-c]pyrimidin-1-yl)cyclohexyl]methyl}amino)-2-chlorobenzonitrile]	> 1	0.22	> 1	0.027					
O=C(NCc1ccc(F)cc1)[C@H]1CC[C@H](c2nnn3cnc4[nH]ccc4c23)CC1 [compound 207, trans-N-(4-fluorobenzyl)-4-(7H-pyrrolo[3,2-e][1,2,3]triazolo[1,5-c]pyrimidin-1-yl)cyclohexanecarboxamide]					> 1	0.055	> 1	0.009	
OCCOc1ccc(CN2CCC(c3nnn4cnc5[nH]ccc5c34)CC2)cc1 [compound 168, 2-(4-{[4-(7H-pyrrolo[3,2-e][1,2,3]triazolo[1,5-c]pyrimidin-1-yl)piperidin-1-yl]methyl}phenoxy)ethanol]					> 1	0.71	> 1	0.084	
CC(C)(C)OC(=O)NCCN1CCC(c2nnn3cnc4[nH]ccc4c23)CC1 [compound 171, tert-butyl {2-[4-(7H-pyrrolo[3,2-e][1,2,3]triazolo[1,5-c]pyrimidin-1-yl)piperidin-1-yl]ethyl}carbamate]					> 1	0.94	> 1	0.1	
Cc1ccc(CNC[C@H]2CC[C@H](c3nnn4cnc5[nH]ccc5c34)CC2)s1 [compound 106]					0.0036	0.041		0.0019	0.28
N#CC1CN(C[C@H]2CC[C@H](c3nnn4cnc5[nH]ccc5c34)CC2)C1 [compound 281, 1-{[trans-4-(7H-pyrrolo[3,2-e][1,2,3]triazolo[1,5-c]pyrimidin-1-yl)cyclohexyl]methyl}azetidine-3-carbonitrile]	0.48	0.05	0.15	0.0077					
O=C1COc2ccc(NC[C@H]3CC[C@H](c4nnn5cnc6[nH]ccc6c45)CC3)cc2N1 [compound 274, 6-({[trans-4-(7H-pyrrolo[3,2-e][1,2,3]triazolo[1,5-c]pyrimidin-1-yl)cyclohexyl]methyl}amino)-2H-benzo[b][1,4]oxazin-3(4H)-one]	0.2	0.029	> 1	0.0035					
c1cc2c(ncn3nnc([C@H]4CC[C@H](CNC56CC(C5)C6)CC4)c23)[nH]1 [compound 316, N-{[trans-4-(7H-pyrrolo[3,2-e][1,2,3]triazolo[1,5-c]pyrimidin-1-yl)cyclohexyl]methyl}bicyclo[1.1.1]pentan-1-amine]	0.59	0.099	> 1	0.013					
O=C1SCCC1NC[C@H]1CC[C@H](c2nnn3cnc4[nH]ccc4c23)CC1 (stereo partly drawn) [compound 253, 3-({[trans-4-(7H-pyrrolo[3,2-e][1,2,3]triazolo[1,5-c]pyrimidin-1-yl)cyclohexyl]methyl}amino)dihydrothiophen-2(3H)-one]	0.044	0.0066	0.14	0.0011					
O=C(CN[C@H]1CC[C@@H](c2nnn3cnc4[nH]ccc4c23)CC1)NCC(F)(F)F [384a, 2-{[cis-4-(7H-pyrrolo[3,2-e][1,2,3]triazolo[1,5-c]pyrimidin-1-yl)cyclohexyl]amino}-N-(2,2,2-trifluoroethyl)acetamide]	> 1	0.56	> 1	0.087					
CC(C#N)=C1CCC(c2nnn3cnc4[nH]ccc4c23)CC1 (stereo not drawn) [compound 437, 2-[4-(7H-pyrrolo[3,2-e][1,2,3]triazolo[1,5-c]pyrimidin-1-yl)cyclohexylidene]propanenitrile]	0.45	0.055	0.57	0.02					
O=C(N[C@H]1CCN(C[C@H]2CC[C@H](c3nnn4cnc5[nH]ccc5c34)CC2)C1)C(F)(F)F [compound 321, N-((S)-1-{[trans-4-(7H-pyrrolo[3,2-e][1,2,3]triazolo[1,5-c]pyrimidin-1-yl)cyclohexyl]methyl}pyrrolidin-3-yl)-2,2,2-trifluoroacetamide]	> 1	0.21	> 1	0.024					
O=C(C[C@H]1CC[C@H](c2nnn3cnc4[nH]ccc4c23)CC1)NCC(F)(F)F [442b, 2-[trans-4-(7H-Pyrrolo[3,2-e][1,2,3]triazolo[1,5-c]pyrimidin-1-yl)cyclohexyl]-N-2,2,2-trifluoroethylacetamide]	0.88	0.014	0.1	0.0032					
